Experimental findings from US20260265233A1, “BENZOTHIOPHENE DERIVATIVES AS RXFP1 AGONISTS” (BRISTOL-MYERS SQUIBB COMPANY, priority 2021, published 2026) are described below.

The assay deals with T1, human RXFP1 (Homo sapiens, UniProt Q9HBX9).
T1 construct: expressed in transfected cells
T1 sequence (Q9HBX9 1-757): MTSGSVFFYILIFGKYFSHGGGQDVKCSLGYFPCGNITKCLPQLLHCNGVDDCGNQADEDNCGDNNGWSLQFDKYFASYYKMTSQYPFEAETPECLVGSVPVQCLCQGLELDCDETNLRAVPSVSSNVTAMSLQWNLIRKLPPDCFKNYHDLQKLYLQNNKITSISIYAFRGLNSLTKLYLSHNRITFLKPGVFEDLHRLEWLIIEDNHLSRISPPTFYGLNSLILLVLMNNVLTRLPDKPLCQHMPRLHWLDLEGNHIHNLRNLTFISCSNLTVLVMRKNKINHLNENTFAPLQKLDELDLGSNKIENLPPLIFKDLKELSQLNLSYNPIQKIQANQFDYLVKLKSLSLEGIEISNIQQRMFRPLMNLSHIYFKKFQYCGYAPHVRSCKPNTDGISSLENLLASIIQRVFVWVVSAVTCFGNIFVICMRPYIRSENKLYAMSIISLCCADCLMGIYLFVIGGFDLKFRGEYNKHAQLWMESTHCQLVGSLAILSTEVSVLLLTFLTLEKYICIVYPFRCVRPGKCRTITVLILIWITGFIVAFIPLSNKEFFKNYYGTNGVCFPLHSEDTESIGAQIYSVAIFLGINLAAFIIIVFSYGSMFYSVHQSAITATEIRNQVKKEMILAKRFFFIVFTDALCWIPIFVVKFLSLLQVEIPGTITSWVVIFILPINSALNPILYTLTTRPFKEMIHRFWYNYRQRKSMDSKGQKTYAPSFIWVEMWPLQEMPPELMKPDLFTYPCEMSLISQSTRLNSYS
In words: hRXFP1 HEK293 cAMP assay (HTRF). In kind it is cell-based. As to conditions: HEK293 cells stably expressing human RXFP1; 30 min at rt; intracellular cAMP by HTRF. A digest of the protocol: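 HEK293 cells stably expressing human RXFP1 treated 30 min at rt with compound (0.010 nM to 50 μM, 2% DMSO) in HBSS/HEPES buffer with 0.5 mM IBMX. Intracellular cAMP measured by HTRF (665/590 nm ratio) against a cAMP standard curve; potency fitted by 4-parameter logistic.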
On the technique in general: cAMP levels reflect the balance of adenylyl cyclase and phosphodiesterase activity.
A word on the EC50: it is the concentration giving half of the maximal effect. A higher EC50 goes with a need for much substance. In turn, `COc1ncc(N2CC3(C2)CS(=O)(=O)C3)cc1C(=O)Nc1c(C(=O)Nc2ccc(F)c(C(F)(F)F)c2)sc2cc(C(F)(F)F)ccc12` [Example 234, 5-(2,2-dioxido-2-thia-6-azaspiro[3.3]heptan-6-yl)-N-(2-((4-fluoro-3-(trifluoromethyl)phenyl)carbamoyl)-6-(trifluoromethyl)benzo[b]thiophen-3-yl)-2-methoxy-nicotinamide] yielded an EC50 of 1340 nM. This counts as single-digit micromolar. For `COc1ccc(CNC(C)(C)CO)cc1C(=O)Nc1c(C(=O)Nc2ccc(F)c(C(F)(F)F)c2)sc2cc(C(F)(F)F)ccc12` [Example 235, N-(4-fluoro-3-(trifluoromethyl)phenyl)-3-(5-(((1-hydroxy-2-methylpropan-2-yl)amino)methyl)-2-methoxy-benzamido)-6-(trifluoromethyl) benzo[b] thiophene-2-carboxamide] the value was 1500 nM; for `COc1ccc(CNCC(C)(C)O)cc1C(=O)Nc1c(C(=O)Nc2ccc(F)c(C(F)(F)F)c2)sc2cc(C(F)(F)F)ccc12` [Example 236, N-(4-fluoro-3-(trifluoromethyl)phenyl)-3-(5-(((2-hydroxy-2-methylpropyl)amino)methyl)-2-methoxy-benzamido)-6-(trifluoromethyl) benzo[b] thiophene-2-carboxamide], 1390 nM. Regarding `COc1ccc(C(=O)NCC(C)(C)O)cc1C(=O)Nc1c(C(=O)Nc2ccc(F)c(C(F)(F)F)c2)sc2cc(C(F)(F)F)ccc12` [Example 237, N3-(2-((4-fluoro-3-(trifluoromethyl)phenyl)carbamoyl)-6-(trifluoromethyl)benzo[b]thiophen-3-yl)-N1-(2-hydroxy-2-methylpropyl)-4-methoxy-isophthalamide], it took 3770 nM to reach a half-maximal effect (EC50). For `COc1ccc(C(=O)N2CC3(COC3)C2)cc1C(=O)Nc1c(C(=O)Nc2ccc(F)c(C(F)(F)F)c2)sc2cc(C3CC3)ncc12` [Example 238, 6-cyclopropyl-N-(4-fluoro-3-(trifluoromethyl)phenyl)-3-(2-methoxy-5-(2-oxa-6-azaspiro[3.3]heptane-6-carbonyl)benzamido) thieno[3,2-c]pyridine-2-carboxamide] the value was 1400 nM; for `COc1ccc(C(=O)N2CC(C)(C)C2)cc1C(=O)Nc1c(C(=O)Nc2ccc(F)c(C(F)(F)F)c2)sc2cc(Cl)ncc12` [Example 240, 6-chloro-3-(5-(3,3-dimethyl-azetidine-1-carbonyl)-2-methoxy-benzamido)-N-(4-fluoro-3-(trifluoromethyl)phenyl)thieno [3,2-c]pyridine-2-carboxamide], 3300 nM.

In turn, `COc1ccc(C(=O)N2CCC(O)CC2)cc1C(=O)Nc1c(C(=O)Nc2ccc(F)c(C(F)(F)F)c2)sc2cc(Cl)ncc12` [Example 241, 6-chloro-N-(4-fluoro-3-(trifluoromethyl)phenyl)-3-(5-(4-hydroxy-piperidine-1-carbonyl)-2-methoxy-benzamido) thieno[3,2-c]pyridine-2-carboxamide] came in with an EC50 of 3900 nM. The EC50 values of the last two compounds are within 1.5-fold of each other. For `COc1ccc(C2=NOC3CNCC23)cc1C(=O)Nc1c(C(=O)Nc2ccc(F)c(C(F)(F)F)c2)sc2cc(C(F)(F)F)ccc12` (stereo not shown) [Example 246, N-(4-fluoro-3-(trifluoromethyl)phenyl)-3-(2-methoxy-5-(3a,5,6,6a-tetrahydro-4H-pyrrolo[3,4-d]isoxazol-3-yl)benzamido)-6-(trifluoromethyl) benzo[b] thiophene-2-carboxamide] the value was 724 nM. For `COc1ccc(C2=NOC3CNCC23)cc1C(=O)Nc1c(C(=O)Nc2ccc(F)c(C(F)(F)F)c2)sc2cc(C(F)(F)F)ccc12` (stereo not shown) [Example 247, N-(4-fluoro-3-(trifluoromethyl)phenyl)-3-(2-methoxy-5-(3a,5,6,6a-tetrahydro-4H-pyrrolo[3,4-d]isoxazol-3-yl)benzamido)-6-(trifluoromethyl) benzo[b] thiophene-2-carboxamide] the value was 531 nM; for `COc1ccc(C2=NOC3(CCOC3=O)C2)cc1C(=O)Nc1c(C(=O)Nc2ccc(F)c(C(F)(F)F)c2)sc2cc(C(F)(F)F)ccc12` (stereo not shown) [Example 251, N-(4-fluoro-3-(trifluoromethyl)phenyl)-3-(2-methoxy-5-(6-oxo-1,7-dioxa-2-azaspiro[4.4]non-2-en-3-yl)benzamido)-6-(trifluoromethyl) benzo[b] thiophene-2-carboxamide], 222 nM; for `O=C(Nc1c(C(=O)Nc2ccc(F)c(C(F)(F)F)c2)sc2cc(C(F)(F)F)ccc12)c1cc(C2=NOC3COCC23)ccc1F` (stereo not shown) [Example 256, 3-(5-{3aH,4H,6H,6aH-furo[3,4-d][1,2]oxazol-3-yl}-2-fluorobenzamido)-N-[4-fluoro-3-(trifluoromethyl)phenyl]-6-(trifluoromethyl)-1-benzothiophene-2-carboxamide], 239 nM. For `COc1ccc(C2=NOC3CC(NC(=O)C(C)(C)O)CC23)cc1C(=O)Nc1c(C(=O)Nc2ccc(F)c(C(F)(F)F)c2)sc2cc(C(F)(F)F)ccc12` (stereo not shown) [Example 260, N-[4-fluoro-3-(trifluoromethyl)phenyl]-3-{5-[5-(2-hydroxy-2-methyl-propanamido)-3aH,4H,5H,6H, 6aH-cyclopenta[d] [1,2]oxazol-3-yl]-2-methoxy-benzamido}-6-(trifluoromethyl)-1-benzothiophene-2-carboxamide] the value was 1310 nM; for `COc1ccc(C2=NOC3CC(NC(=O)CO)CC23)cc1C(=O)Nc1c(C(=O)Nc2ccc(F)c(C(F)(F)F)c2)sc2cc(C(F)(F)F)ccc12` (stereo not shown) [Example 261, N-[4-fluoro-3-(trifluoromethyl)phenyl]-3-{5-[5-(2-hydroxy-acetamido)-3aH,4H,5H,6H, 6aH-cyclopenta[d] [1,2]oxazol-3-yl]-2-methoxy-benzamido}-6-(trifluoromethyl)-1-benzothiophene-2-carboxamide], 90.7 nM; for `COc1ccc(C2=NOC3(CCN(C(=O)C(C)(C)CO)CC3)C2)cc1C(=O)Nc1c(C(=O)Nc2ccc(F)c(C(F)(F)F)c2)sc2cc(C(F)(F)F)ccc12` [Example 269, N-(4-fluoro-3-(trifluoromethyl)phenyl)-3-(5-(8-(3-hydroxy-2,2-dimethyl-propanoyl)-1-oxa-2,8-diazaspiro[4.5]dec-2-en-3-yl)-2-methoxy-benzamido)-6-(trifluoromethyl) benzo[b] thiophene-2-carboxamide], 737 nM. As to `COc1ccc(C2=NOC3(CCN(C(=O)C(C)(C)O)CC3)C2)cc1C(=O)Nc1c(C(=O)Nc2ccc(F)c(C(F)(F)F)c2)sc2cc(C(F)(F)F)ccc12` [Example 270, N-(4-fluoro-3-(trifluoromethyl)phenyl)-3-(5-(8-(2-hydroxy-2-methylpropanoyl)-1-oxa-2,8-diazaspiro[4.5]dec-2-en-3-yl)-2-methoxy-benzamido)-6-(trifluoromethyl) benzo[b] thiophene-2-carboxamide], the concentration for a half-maximal effect (EC50) is 532 nM. With `COc1ccc(C2=NOC3(CCN(C(=O)CO)CC3)C2)cc1C(=O)Nc1c(C(=O)Nc2ccc(F)c(C(F)(F)F)c2)sc2cc(C(F)(F)F)ccc12` [Example 271, N-(4-fluoro-3-(trifluoromethyl)phenyl)-3-(5-(8-(2-hydroxyacetyl)-1-oxa-2,8-diazaspiro[4.5]dec-2-en-3-yl)-2-methoxy-benzamido)-6-(trifluoromethyl) benzo[b] thiophene-2-carboxamide] the figure was 379 nM; with `COc1ccc(C2=NOC3(CCNCC3)C2)cc1C(=O)Nc1c(C(=O)Nc2ccc(F)c(C(F)(F)F)c2)sc2cc(C(F)(F)F)ccc12` [Example 272, N-(4-fluoro-3-(trifluoromethyl)phenyl)-3-(2-methoxy-5-(1-oxa-2,8-diazaspiro[4.5]dec-2-en-3-yl)benzamido)-6-(trifluoromethyl) benzo[b] thiophene-2-carboxamide], 900 nM; with `COc1ccc(-c2cc(CN(C)C)on2)cc1C(=O)Nc1c(C(=O)Nc2ccc(F)c(C(F)(F)F)c2)sc2cc(C(F)(F)F)ccc12` [Example 273, 3-(5-(5-((dimethylamino)methyl)isoxazol-3-yl)-2-methoxy-benzamido)-N-(4-fluoro-3-(trifluoromethyl)phenyl)-6-(trifluoromethyl) benzo[b] thiophene-2-carboxamide], 857 nM.

As to `COc1ccc(-c2noc(C(C)(C)CO)n2)cc1C(=O)Nc1c(C(=O)Nc2ccc(F)c(C(F)(F)F)c2)sc2cc(C(F)(F)F)ccc12` [Example 274, N-(4-fluoro-3-(trifluoromethyl)phenyl)-3-(5-(5-(1-hydroxy-2-methylpropan-2-yl)-1,2,4-oxadiazol-3-yl)-2-methoxy-benzamido)-6-(trifluoromethyl) benzo[b] thiophene-2-carboxamide], the half-maximal effective concentration (EC50) worked out at 278 nM. Against the preceding compound, the EC50 is about 3.1-fold lower.
